Consider 15 molecules from ChEMBL document CHEMBL5291721, “A preclinical secondary pharmacology resource illuminates target-adverse drug reaction associations of marketed drugs” (Nat Commun, 2023).

In experiment [1] the target is T1, Prostaglandin G/H synthase 1 (Homo sapiens, UniProt P23219). The format is functional.
The target of experiment [2] is T1, Prostaglandin G/H synthase 1. The format is functional. This is another data set of the same source.
Experiment [3] concerns the target T2, Alpha-2A adrenergic receptor (Homo sapiens, UniProt P08913).
T2 sequence (P08913 whole entry): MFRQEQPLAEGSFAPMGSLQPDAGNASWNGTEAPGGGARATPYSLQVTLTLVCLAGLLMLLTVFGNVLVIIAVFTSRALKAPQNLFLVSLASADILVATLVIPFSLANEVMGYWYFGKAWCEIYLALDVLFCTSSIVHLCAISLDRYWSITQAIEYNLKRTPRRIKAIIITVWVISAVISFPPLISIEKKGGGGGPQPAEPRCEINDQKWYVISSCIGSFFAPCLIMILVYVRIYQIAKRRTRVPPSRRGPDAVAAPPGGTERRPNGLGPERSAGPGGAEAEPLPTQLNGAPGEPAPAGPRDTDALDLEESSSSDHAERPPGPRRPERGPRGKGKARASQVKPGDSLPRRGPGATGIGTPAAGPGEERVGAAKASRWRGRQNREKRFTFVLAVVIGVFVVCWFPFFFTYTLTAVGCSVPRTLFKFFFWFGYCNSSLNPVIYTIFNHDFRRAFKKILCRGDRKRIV

For experiment [4], the target named is cGMP-inhibited 3',5'-cyclic phosphodiesterase 3A (Homo sapiens, UniProt Q14432). It is filed as functional.
The next experiment has as its target T3, Estrogen receptor (Homo sapiens, UniProt P03372).
T3 sequence (P03372 whole entry): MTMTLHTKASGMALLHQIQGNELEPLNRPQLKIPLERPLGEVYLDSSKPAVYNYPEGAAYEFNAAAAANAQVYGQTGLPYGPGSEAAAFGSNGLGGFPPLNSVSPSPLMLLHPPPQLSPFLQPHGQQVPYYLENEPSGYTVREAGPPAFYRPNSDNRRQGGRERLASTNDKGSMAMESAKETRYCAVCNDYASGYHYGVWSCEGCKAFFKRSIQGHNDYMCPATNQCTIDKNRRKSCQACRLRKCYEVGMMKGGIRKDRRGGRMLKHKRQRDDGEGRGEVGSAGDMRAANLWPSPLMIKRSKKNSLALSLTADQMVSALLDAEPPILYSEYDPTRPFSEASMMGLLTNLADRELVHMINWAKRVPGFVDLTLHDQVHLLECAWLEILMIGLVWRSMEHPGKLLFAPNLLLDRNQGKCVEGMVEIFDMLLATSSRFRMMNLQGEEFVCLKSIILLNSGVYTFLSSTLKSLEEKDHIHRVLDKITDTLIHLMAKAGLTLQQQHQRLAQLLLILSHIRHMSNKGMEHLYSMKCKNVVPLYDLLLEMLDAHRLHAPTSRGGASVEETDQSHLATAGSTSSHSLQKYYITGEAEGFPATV

Experiment [5] has as its target T4, Muscarinic acetylcholine receptor M2 (Homo sapiens, UniProt P08172).
T4 sequence (P08172 whole entry): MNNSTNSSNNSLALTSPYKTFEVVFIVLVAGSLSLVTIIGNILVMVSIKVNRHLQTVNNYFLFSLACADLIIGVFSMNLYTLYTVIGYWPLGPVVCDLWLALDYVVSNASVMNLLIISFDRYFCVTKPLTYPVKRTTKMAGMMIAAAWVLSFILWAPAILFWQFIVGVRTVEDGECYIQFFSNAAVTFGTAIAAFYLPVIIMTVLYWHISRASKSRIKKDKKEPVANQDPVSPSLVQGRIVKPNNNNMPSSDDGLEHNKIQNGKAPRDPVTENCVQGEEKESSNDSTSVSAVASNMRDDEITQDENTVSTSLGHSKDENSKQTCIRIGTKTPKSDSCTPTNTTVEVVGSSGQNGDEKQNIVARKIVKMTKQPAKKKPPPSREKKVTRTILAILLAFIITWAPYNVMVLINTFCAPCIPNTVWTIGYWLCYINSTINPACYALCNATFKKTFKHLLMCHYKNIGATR

In another experiment the target is T5, Thromboxane A2 receptor (Homo sapiens, UniProt P21731).
T5 sequence (P21731 whole entry): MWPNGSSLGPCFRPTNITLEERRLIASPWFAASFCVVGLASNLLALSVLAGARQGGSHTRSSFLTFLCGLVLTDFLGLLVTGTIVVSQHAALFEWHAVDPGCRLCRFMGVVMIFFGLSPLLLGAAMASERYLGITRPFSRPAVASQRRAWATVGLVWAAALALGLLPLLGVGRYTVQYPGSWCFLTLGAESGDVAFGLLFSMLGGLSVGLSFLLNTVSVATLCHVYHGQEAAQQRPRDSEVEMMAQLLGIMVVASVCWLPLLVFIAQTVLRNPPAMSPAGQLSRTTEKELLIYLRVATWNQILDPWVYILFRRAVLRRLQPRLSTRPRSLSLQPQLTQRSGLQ
The format is functional, cell-based.

In experiment [6] the target is 3',5'-cyclic-AMP phosphodiesterase 4A (Homo sapiens, UniProt P27815). It is filed as functional.
Experiment [7] deals with Sodium-dependent noradrenaline transporter (Homo sapiens, UniProt P23975).

In general, AC50 refers to the concentration at which the activity in the assay is half-maximal.
Note: assay procedure not described here.

T1 sequence (P23219 whole entry): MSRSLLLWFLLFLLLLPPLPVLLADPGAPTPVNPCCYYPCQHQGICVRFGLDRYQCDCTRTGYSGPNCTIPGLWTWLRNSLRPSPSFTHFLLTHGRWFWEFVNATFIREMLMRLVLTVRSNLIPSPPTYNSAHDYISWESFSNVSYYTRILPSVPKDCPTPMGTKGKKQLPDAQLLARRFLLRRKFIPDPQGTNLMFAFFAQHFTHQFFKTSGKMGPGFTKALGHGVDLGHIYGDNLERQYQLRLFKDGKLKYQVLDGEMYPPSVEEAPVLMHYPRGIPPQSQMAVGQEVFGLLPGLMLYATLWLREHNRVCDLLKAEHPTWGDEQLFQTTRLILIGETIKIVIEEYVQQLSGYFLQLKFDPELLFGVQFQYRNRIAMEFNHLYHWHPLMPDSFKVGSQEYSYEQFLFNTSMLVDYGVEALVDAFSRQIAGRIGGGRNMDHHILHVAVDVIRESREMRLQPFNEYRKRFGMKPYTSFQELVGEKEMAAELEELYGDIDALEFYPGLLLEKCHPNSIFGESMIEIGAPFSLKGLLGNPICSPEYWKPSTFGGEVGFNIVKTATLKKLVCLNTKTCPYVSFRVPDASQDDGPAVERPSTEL
Sodium-dependent noradrenaline transporter, sequence (P23975 whole entry): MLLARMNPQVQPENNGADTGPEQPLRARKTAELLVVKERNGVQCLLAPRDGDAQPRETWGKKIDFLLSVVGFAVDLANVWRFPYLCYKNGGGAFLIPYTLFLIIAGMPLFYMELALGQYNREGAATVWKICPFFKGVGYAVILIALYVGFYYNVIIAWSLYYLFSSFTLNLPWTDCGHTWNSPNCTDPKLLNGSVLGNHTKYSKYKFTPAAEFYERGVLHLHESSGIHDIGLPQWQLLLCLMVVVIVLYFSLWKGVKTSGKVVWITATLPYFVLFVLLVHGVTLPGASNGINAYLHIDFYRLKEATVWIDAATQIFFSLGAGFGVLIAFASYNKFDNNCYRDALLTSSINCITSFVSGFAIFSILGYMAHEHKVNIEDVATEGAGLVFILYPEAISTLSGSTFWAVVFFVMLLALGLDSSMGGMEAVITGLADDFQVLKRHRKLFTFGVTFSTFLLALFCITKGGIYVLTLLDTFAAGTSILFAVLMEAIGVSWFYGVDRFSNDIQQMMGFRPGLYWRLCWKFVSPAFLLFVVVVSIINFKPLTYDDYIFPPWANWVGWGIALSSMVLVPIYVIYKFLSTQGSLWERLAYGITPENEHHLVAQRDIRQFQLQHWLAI
3',5'-cyclic-AMP phosphodiesterase 4A, sequence (P27815 whole entry): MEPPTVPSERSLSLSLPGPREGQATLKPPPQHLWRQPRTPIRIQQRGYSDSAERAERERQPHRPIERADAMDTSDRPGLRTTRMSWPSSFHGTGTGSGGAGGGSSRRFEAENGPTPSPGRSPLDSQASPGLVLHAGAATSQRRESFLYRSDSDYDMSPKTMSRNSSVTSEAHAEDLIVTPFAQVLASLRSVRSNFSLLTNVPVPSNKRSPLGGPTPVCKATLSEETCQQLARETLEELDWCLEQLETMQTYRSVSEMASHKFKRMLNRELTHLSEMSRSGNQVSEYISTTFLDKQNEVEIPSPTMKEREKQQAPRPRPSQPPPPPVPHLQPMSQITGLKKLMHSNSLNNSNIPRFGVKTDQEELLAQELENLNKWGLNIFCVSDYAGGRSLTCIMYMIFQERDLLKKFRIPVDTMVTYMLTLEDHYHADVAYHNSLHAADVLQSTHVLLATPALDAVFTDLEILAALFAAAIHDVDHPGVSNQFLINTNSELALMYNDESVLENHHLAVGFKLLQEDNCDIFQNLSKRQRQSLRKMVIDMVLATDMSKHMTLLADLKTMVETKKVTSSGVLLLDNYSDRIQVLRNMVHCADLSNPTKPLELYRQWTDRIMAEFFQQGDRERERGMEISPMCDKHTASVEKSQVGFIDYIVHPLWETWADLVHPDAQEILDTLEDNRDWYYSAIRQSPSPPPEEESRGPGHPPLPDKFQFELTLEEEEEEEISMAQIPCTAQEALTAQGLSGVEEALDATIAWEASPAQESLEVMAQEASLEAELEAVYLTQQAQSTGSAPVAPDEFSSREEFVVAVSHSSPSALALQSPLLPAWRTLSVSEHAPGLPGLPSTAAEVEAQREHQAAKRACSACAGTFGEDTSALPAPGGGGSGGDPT
cGMP-inhibited 3',5'-cyclic phosphodiesterase 3A, sequence (Q14432 whole entry): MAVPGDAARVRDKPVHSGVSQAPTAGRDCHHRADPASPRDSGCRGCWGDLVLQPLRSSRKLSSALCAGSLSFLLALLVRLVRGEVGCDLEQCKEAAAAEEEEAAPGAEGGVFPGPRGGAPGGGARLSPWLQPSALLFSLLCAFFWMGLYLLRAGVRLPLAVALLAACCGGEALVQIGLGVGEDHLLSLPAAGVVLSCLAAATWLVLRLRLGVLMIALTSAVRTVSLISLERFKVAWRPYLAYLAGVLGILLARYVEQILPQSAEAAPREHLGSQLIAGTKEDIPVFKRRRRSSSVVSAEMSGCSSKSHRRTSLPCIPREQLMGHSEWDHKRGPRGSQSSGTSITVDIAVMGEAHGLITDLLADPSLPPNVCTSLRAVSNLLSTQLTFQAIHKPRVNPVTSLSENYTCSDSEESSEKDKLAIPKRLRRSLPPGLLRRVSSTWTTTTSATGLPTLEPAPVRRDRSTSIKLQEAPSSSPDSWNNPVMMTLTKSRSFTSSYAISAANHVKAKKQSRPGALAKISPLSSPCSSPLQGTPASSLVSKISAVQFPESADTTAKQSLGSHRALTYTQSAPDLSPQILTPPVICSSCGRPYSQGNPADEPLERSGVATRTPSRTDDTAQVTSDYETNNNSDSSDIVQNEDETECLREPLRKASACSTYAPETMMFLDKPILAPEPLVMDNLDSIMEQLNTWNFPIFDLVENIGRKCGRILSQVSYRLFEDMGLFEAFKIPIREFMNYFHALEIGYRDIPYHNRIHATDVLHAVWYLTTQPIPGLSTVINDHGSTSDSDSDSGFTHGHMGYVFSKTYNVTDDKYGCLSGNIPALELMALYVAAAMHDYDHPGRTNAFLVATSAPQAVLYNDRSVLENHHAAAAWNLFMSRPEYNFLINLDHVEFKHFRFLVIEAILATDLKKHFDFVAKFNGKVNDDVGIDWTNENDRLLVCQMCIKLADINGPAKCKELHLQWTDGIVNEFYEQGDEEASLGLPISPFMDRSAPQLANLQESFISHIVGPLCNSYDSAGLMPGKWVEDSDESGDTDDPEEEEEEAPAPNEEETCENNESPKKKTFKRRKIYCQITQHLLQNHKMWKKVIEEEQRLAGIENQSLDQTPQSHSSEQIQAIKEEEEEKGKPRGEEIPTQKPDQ

In the case of `O=C(c1ccc(F)c(F)c1Nc1ccc(I)cc1F)N1CC(O)([C@@H]2CCCCN2)C1` [COBIMETINIB], the AC50 in experiment [1] was greater than 30 µM; in experiment [2], greater than 30 µM; in experiment [3], greater than 30 µM; in experiment [4], greater than 30 µM; at Estrogen receptor it was greater than 30 µM; in [5], 13.8 µM. Also, the AC50 at Thromboxane A2 receptor was greater than 3 µM; in [6] it was greater than 30 µM; in [7], 16.9 µM.
`NCc1ccccc1CC(=O)N[C@@H]1C(=O)N2C(C(=O)O)=C(CSc3nnnn3CC(=O)O)CS[C@H]12` [CEFORANIDE]: the AC50 (in experiment [1]; in [2]; in experiment [3]; in experiment [4]; at Estrogen receptor; in experiment [5]) was greater than 30 µM throughout. The concentration at half-maximal activity (AC50) (at Thromboxane A2 receptor; in experiment [6]; in experiment [7]) was greater than 30 µM each time.
Turning to `C[C@@H]1C[C@H]2[C@@H]3C[C@H](F)C4=CC(=O)C=C[C@]4(C)[C@@]3(F)[C@@H](O)C[C@]2(C)[C@@]1(O)C(=O)COC(=O)C(C)(C)C` [FLUMETHASONE PIVALATE], the AC50 (in experiment [1]; in experiment [2]; in experiment [3]; in experiment [4]; on Estrogen receptor; in [5]) was greater than 30 µM in each case. Moreover, the half-maximal activity concentration (AC50) (on Thromboxane A2 receptor; in experiment [6]; in experiment [7]) was greater than 30 µM each time.
On to `N/N=c1/cc2c(n[nH]1)CCN(C(=O)c1ccccc1)C2` [ENDRALAZINE], for which the AC50 in [1] was 22.3 µM; in experiment [2], greater than 30 µM; in [3], greater than 30 µM; in experiment [4], greater than 30 µM; at Estrogen receptor it was greater than 30 µM; in [5], greater than 30 µM. In addition, the AC50 (at Thromboxane A2 receptor; in [6]; in experiment [7]) was greater than 30 µM throughout.
Regarding `NS(=O)(=O)c1cc2c(cc1Cl)NC(C1CC3C=CC1C3)NS2(=O)=O` (stereo not given) [CYCLOTHIAZIDE], the AC50 (in experiment [1]; in experiment [2]; in experiment [3]; in experiment [4]; at Estrogen receptor; in experiment [5]) was greater than 30 µM throughout. For the same molecule, the AC50 (on Thromboxane A2 receptor; in experiment [6]; in [7]) was greater than 30 µM each time.
For `Nc1ccc(C(=O)O)cc1` [AMINOBENZOIC ACID], the AC50 is 2.18 µM in experiment [1]; 4.69 µM in experiment [2]; greater than 30 µM in experiment [3]; greater than 30 µM in [4]; greater than 30 µM on Estrogen receptor; greater than 30 µM in experiment [5]. Also, the AC50 (at Thromboxane A2 receptor; in experiment [6]; in experiment [7]) was greater than 30 µM in each case.
With `COc1cc2c(cc1OC)[C@H]1C[C@@H](OC(=O)[C@@H](N)C(C)C)[C@H](CC(C)C)CN1CC2` [VALBENAZINE], the AC50 in experiment [1] was 24.1 µM; in [2], 5.44 µM; in experiment [3], greater than 30 µM; in [4], greater than 30 µM; at Estrogen receptor, greater than 30 µM; in experiment [5], greater than 30 µM. Moreover, the results for the AC50 (on Thromboxane A2 receptor; in experiment [6]; in [7]) were 13.9 µM, greater than 30 µM and greater than 30 µM, respectively.
For `O=C(Nc1ccccc1)OCC(CN1CCCCC1)OC(=O)Nc1ccccc1` (stereo not given) [DIPERODON], the AC50 (in experiment [1]; in [2]; in [3]; in experiment [4]; at Estrogen receptor; in [5]) was greater than 30 µM in each case. Further, the AC50 (at Thromboxane A2 receptor; in [6]; in experiment [7]) was greater than 30 µM throughout.
As to `NC(=O)c1cccc2cn(-c3ccc([C@@H]4CCCNC4)cc3)nc12` [NIRAPARIB], the AC50 in experiment [1] was greater than 30 µM; in [2] it was greater than 30 µM; in [3], greater than 30 µM; in [4] it was greater than 30 µM; at Estrogen receptor, greater than 30 µM; in [5] it was 14.4 µM. Besides, the AC50 at Thromboxane A2 receptor was greater than 30 µM; in experiment [6] it was greater than 30 µM; in experiment [7], 1 µM.
Turning to `CN1CCN(C(c2ccccc2)c2ccccc2)CC1` [CYCLIZINE], the AC50 in [1] is greater than 30 µM; in experiment [2], greater than 30 µM; in experiment [3], 3.47 µM; in experiment [4], greater than 30 µM; on Estrogen receptor it was greater than 30 µM; in experiment [5] it was 0.334 µM. Also, the half-maximal activity concentration (AC50) (at Thromboxane A2 receptor; in [6]; in [7]) was greater than 30 µM in each case.
Turning to `Oc1c(I)cc(I)c2cccnc12` [IODOQUINOL], the AC50 in experiment [1] is greater than 30 µM; in experiment [2], greater than 30 µM; in experiment [3], greater than 30 µM; in experiment [4], 3.36 µM; at Estrogen receptor, greater than 30 µM; in [5], greater than 10 µM. For the same molecule, the AC50 was greater than 30 µM on Thromboxane A2 receptor, greater than 30 µM in experiment [6] and 0.874 µM in experiment [7].
As to `COc1cc(NCc2ccc3nc(N)nc(N)c3c2C)cc(OC)c1OC` [TRIMETREXATE], the AC50 is 2.4 µM in [1]; 28.1 µM in [2]; greater than 30 µM in [3]; 11.9 µM in experiment [4]; 23 µM at Estrogen receptor; 3.6 µM in [5]. Also, the AC50 on Thromboxane A2 receptor was greater than 30 µM; in [6], 7.19 µM; in [7] it was 12.3 µM.
For `CC/C=C\C/C=C\C/C=C\C/C=C\C/C=C\CCCC(=O)O` [ICOSAPENT], the AC50 was 9.84 µM in experiment [1]; greater than 10 µM in [2]; greater than 30 µM in [3]; greater than 30 µM in experiment [4]; greater than 30 µM on Estrogen receptor; greater than 30 µM in [5]. Moreover, the AC50 (on Thromboxane A2 receptor; in experiment [6]; in experiment [7]) was greater than 30 µM throughout.
Take `Nc1ccc(/N=N/c2ccccc2)c(N)n1` [PHENAZOPYRIDINE]: the AC50 in [1] was 24.9 µM; in experiment [2], greater than 30 µM; in experiment [3], greater than 30 µM; in experiment [4] it was 20.9 µM; on Estrogen receptor, greater than 30 µM; in [5], greater than 30 µM. The AC50 on Thromboxane A2 receptor was determined as 28.4 µM; in [6], 22.5 µM; in experiment [7], 3.85 µM.
`Nc1nc2c(ncn2CCC(CO)CO)c(=O)[nH]1` [PENCICLOVIR]: the AC50 (in experiment [1]; in experiment [2]; in experiment [3]; in experiment [4]; on Estrogen receptor; in experiment [5]) was greater than 30 µM in each case. The AC50 (on Thromboxane A2 receptor; in experiment [6]; in experiment [7]) was greater than 30 µM throughout.
